Measurements from patent US6569878B1, “Substituted 4-amino-thiazol-2-yl compounds as cyclin-dependent kinase inhibitors” (Agouron Pharmaceuticals Inc., priority 1997, dated 2003).
Counter-ions that a name gives are not always drawn.

Legend:
Saos-2 = test: Inhibition of cell growth, MTT assay, Saos-2; format: cell-based; settings: Saos-2, MTT assay; for IC50 / IC90: Homo sapiens; for % inhibition of growth in parentheses after >25: concentration not given
Procedure: (§1) The water-insoluble purple formazan product was then detected spectrophotometrically. […] Plates were incubated for four hours before addition of inhibitor compounds. Different concentrations of inhibitor compounds were added in 0.5% (v/v) dimethylsulfoxide (15 μL/well), and cells were incubated at 37° C. (5% CO2) for four to six days (depending on cell type). At the end of the incubation, MTT was added to a final concentration of 0.2 mg/mL, and cells were incubated for 4 hours more at 37° C. After centrifugation of the plates and removal of medium, the absorbance of the formazan (solubilized in dimethylsulfoxide) was measured at 540 nm.

CDK2/cyclin A = biological target: T1, CDK2/cyclin A (Homo sapiens, UniProt P24941); test: Inhibition of CDK2/cyclin A retinoblastoma kinase activity; format: biochemical; settings: read-out: Ki CDK 2/A
T1 construct: made in house; host or cells: CDK2: insect cells (baculovirus); cyclin A: E. coli, then limited proteolysis
Method in brief: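 Baculovirus-expressed CDK2 with excess proteolyzed cyclin A (or purified complex), 150 nM or 5 nM, phosphorylating an Rb fragment with 25 μM [32/33P]ATP, pH 7.4, 30° C, 20 min. Filter-captured radioactivity by phosphorimager; apparent Ki from fits to competitive or tight-binding competitive inhibition using measured ATP Km.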

[1] = biological target: T2, complex of human CDK4 and cyclin D3 (Homo sapiens, UniProt P11802); test: Inhibition of CDK4/cyclin D retinoblastoma kinase activity (D-type cyclin is D3); format: biochemical; settings: superscript a: D-type cyclin is D3; apparent Ki; read-out: Ki CDK 4/D
T2 construct: made in house; host or cells: insect cells, co-infected with baculovirus
Method in brief: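 Apparent Ki derived by fitting background-corrected activity to competitive (or, for tight binders, competitive tight-binding) equations with measured ATP Km. Rb phosphorylation by radiolabelled ATP was measured at 30°C, 20 min standard or 60 min at 5 nM complex for tight binders, via nitrocellulose capture and phosphorimager.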

[2] = biological target: T3, human CDK1 (cdc2) and cyclin B (Homo sapiens, UniProt P06493); test: Inhibition of CDK1(cdc2)/cyclin B histone H1 kinase activity; format: biochemical; settings: read-out: Ki CDK 1/B
T3 construct: purchased New England Biolabs (Beverly Mass.)
Procedure: Cyclin-dependent kinase activity was measured by quantifying the enzyme-catalyzed, time-dependent incorporation of radioactive phosphate from [^32P]ATP or [^33P]ATP into a protein substrate. Unless noted otherwise, assays were performed in 96-well plates in a total volume of 50 μL, in the presence of 10 mM HEPES (N-[2-hydroxyethyl]piperazine-N′-[2-ethanesulfonic acid]) (pH 7.4), 10 mM MgCl2, 25 μM adenosine triphosphate (ATP), 1 mg/mL ovalbumin, 5 μg/mL leupeptin, 1 mM dithiothreitol, 10 mM β-glycerophosphate, 0.1 mM sodium vanadate, 1 mM sodium fluoride, 2.5 mM ethylene glycol-bis(β-aminoethyl ether)-N,N,N′N′-tetraacetic acid (EGTA), 2% (v/v) dimethylsulfoxide, and 0.03-0.4 μCi [^32/33P]ATP per reaction. Reactions were initiated with enzyme, incubated at 30° C., and terminated after 20 minutes by the addition of ethylenediaminetetraacetic acid (EDTA) to 250 mM. The phosphorylated substrate was then captured on a nitrocellulose or phosphocellulose membrane using a 96-well filtration manifold, and unincorporated radioactivity was removed by repeated washing with 0.85% phosphoric acid. Radioactivity was quantified by exposing the dried membranes to a phosphorimager.
Apparent Ki values were measured by assaying enzyme activity in the presence of different inhibitor compound concentrations and subtracting the background radioactivity measured in the absence of enzyme. The kinetic parameters (kcat, Km for ATP) were measured for each enzyme under the usual assay conditions by determining the dependence of initial rates on ATP concentration. Inhibition data were fit to an equation for competitive inhibition using Kaleidagraph (Synergy Software), or were fit to an equation for competitive tight-binding inhibition using the software KineTic (BioKin, Ltd.).
The complex of human CDK1 (cdc2) and cyclin B was purchased from New England Biolabs (Beverly Mass.). Alternatively, a CDK1/glutathione-S-transferase-cyclin B1 complex was purified using glutathione affinity chromatography from insect cells that had been co-infected with the corresponding baculovirus expression vectors. The assay was executed as described above at 30° C. using 2.5 units of cdc2/cyclin B, 10 μg Histone H1 protein, and 0.1-0.3 μCi [^32/33P]ATP per assay. Phosphorylated histone substrate was captured by microfiltration on a phosphocellulose P81 membrane and quantified using a phosphorimager as described above. Ki values were measured using the described curve-fitting programs.

U2-OS = test: Inhibition of cell growth, MTT assay, U2-OS; format: cell-based; settings: for IC50 / IC90: Homo sapiens, U2OS; for % inhibition of growth in parentheses after >25: concentration not given
Procedure: as §1

HCT116 = test: Inhibition of cell growth, MTT assay, HCT116; format: cell-based, human; settings: Homo sapiens, HCT-116
Procedure: as §1

T3 sequence (P06493 whole entry): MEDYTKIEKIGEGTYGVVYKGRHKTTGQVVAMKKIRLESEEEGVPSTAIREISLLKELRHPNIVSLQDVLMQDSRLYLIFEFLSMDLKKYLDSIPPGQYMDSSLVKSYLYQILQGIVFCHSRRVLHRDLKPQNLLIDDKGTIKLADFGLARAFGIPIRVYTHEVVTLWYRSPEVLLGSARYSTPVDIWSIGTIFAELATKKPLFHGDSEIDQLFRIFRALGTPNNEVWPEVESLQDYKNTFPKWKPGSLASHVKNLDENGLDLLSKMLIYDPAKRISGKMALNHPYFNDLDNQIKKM
T3 sequence (P14635 whole entry partner): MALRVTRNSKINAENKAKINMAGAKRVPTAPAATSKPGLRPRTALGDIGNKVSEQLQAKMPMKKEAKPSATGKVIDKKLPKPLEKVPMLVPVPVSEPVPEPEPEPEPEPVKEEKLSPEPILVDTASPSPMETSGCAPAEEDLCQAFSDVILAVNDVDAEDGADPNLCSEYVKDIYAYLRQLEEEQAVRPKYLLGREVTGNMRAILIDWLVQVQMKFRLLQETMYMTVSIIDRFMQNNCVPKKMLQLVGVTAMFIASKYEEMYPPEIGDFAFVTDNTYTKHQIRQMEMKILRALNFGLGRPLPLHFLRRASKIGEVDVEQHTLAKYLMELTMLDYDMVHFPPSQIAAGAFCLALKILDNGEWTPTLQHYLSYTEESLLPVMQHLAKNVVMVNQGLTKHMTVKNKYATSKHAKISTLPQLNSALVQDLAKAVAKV
T2 sequence (P11802 whole entry): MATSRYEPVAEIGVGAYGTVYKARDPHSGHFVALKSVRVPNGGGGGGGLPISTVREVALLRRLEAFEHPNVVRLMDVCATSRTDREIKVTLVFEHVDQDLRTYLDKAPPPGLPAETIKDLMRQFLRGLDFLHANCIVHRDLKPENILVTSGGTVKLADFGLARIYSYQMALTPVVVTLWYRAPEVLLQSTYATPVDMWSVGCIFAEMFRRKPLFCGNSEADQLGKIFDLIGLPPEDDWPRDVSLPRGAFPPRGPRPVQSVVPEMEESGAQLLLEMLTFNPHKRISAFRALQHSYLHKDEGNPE
T2 sequence (P30281 whole entry partner): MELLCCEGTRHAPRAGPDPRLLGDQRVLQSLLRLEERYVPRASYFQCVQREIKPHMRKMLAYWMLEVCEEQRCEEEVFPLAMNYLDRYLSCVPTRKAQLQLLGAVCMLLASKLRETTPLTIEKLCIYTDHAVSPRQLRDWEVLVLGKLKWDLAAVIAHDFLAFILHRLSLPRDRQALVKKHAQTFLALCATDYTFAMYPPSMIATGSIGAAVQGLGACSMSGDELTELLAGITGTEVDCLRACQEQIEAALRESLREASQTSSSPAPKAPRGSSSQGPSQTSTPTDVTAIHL

Ki (CDK2/cyclin A) [nM] | Ki [1] [nM] | Ki [2] [nM] | IC50 (U2-OS) [µM] | IC90 (U2-OS) [µM] | IC50 (HCT116) [nM] | IC90 (HCT116) [µM] | Structure (SMILES) | IC50 (Saos-2) [nM] | IC90 (Saos-2) [µM] | % inhibition of growth in parentheses after >25 (Saos-2) | % inhibition of growth in parentheses after >25 (U2-OS)
1120 | 2.8 | 1370 | 5 | 11 | 2200 | 5.9 | CN1CCN(c2ccc(Nc3nc(N)c(C(=O)c4c(Cl)cncc4Cl)s3)cc2)CC1 [C(70), {4-Amino-2-[4-(4-methyl-piperazin-1-yl)-phenylamino]-thiazol-5-yl}-(3,5-dichloro-pyridin-4-yl)-methanone] | 5800 | 12 | – | –
565 | 27 | 720 | 2.4 | 5.2 | 1300 | 2.9 | CC(=O)N1CCN(c2ccc(Nc3nc(N)c(C(=O)c4sccc4C)s3)cc2)CC1 [C(98), 2-[4-(1-Acetyl-piperazine-4-yl)-phenylamino]-4-amino-thiazol-5-yl-(3-methyl-thiophen-2-yl)-methanone] | 2700 | 5.3 | – | –
474 | 3.6 | 361 | 16 | 21 | 15000 | 25 | Nc1ccc(Cl)c(C(=O)c2sc(Nc3ccc(N4CCNCC4)cc3)nc2N)c1Cl [H(2), (3-Amino-2,6-dichloro-phenyl)-[4-amino-2-(4-piperazin-1-yl-phenylamino)-thiazol-5-yl]-methanone Trihydrochloride] | 13000 | 22 | – | –
< 50 | 25 | 75 | 3.9 | 5.8 | 1500 | 3 | Cc1cc([N+](=O)[O-])sc1C(=O)c1sc(Nc2ccc(S(N)(=O)=O)cc2)nc1N [C(95), 4-[4-Amino-5-(3-methyl-5-nitro-thiophene-2-carbonyl)-thiazol-2-ylamino]-benzenesulfonamide] | 1800 | 4.5 | – | –
248 | 8 | 46 | 1.9 | 3 | 700 | 1.5 | CC(=O)c1ccc(Nc2nc(N)c(C(=O)c3ccccc3[N+](=O)[O-])s2)cc1 [C(24), 1-{4-[4-Amino-5-(2-nitro-benzoyl)-thiazol-2-ylamino]-phenyl}-ethanone] | 1400 | 2.8 | – | –
49 | 21 | 17 | 3.1 | 5.4 | 1100 | 2.4 | NC(=O)c1ccc(Nc2nc(N)c(C(=O)c3c(F)cccc3F)s2)cc1 [C(102), 4-[4-Amino-5-(2,6-difluoro-benzoyl)-thiazol-2-ylamino]-benzamide] | 880 | 2.2 | – | –
405 | 2.4 | 472 | 3.5 | 5.8 | 880 | 2.4 | Nc1nc(Nc2ccc(N3CCNCC3)cc2)sc1C(=O)c1c(Cl)cccc1Cl [H(3), [4-Amino-2-(4-piperazin-1-yl-phenylamino)-thiazol-5-yl]-(2,6-dichloro-phenyl)-methanone] | 1800 | 3 | – | –
452 | 2.3 | 732 | 3.5 | 5.9 | 1300 | 3 | Nc1nc(Nc2ccc(N3CCNCC3)cc2)sc1C(=O)c1c(Cl)cc(Cl)cc1Cl [J(1), [4-Amino-2-(4-piperazin-1-yl-phenylamino)-thiazol-5-yl]-(2,4,6-trichloro-phenyl)-methanone] | 1000 | 5.9 | – | –
80 | 10.9 | 62 | 5.7 | 11 | 3500 | 6 | Nc1nc(Nc2ccc(N3CCNC(=O)C3)cc2)sc1C(=O)c1c(F)cccc1F [C(120), 4-{4-[4-Amino-5-(2,6-difluoro-benzoyl)-thiazol-2-ylamino]-phenyl}-piperazin-2-one] | 2600 | 5.2 | – | –
310 | 7 | 233 | 16 | > 25 | 10000 | 25 | Nc1nc(Nc2ccc3nc[nH]c3c2)sc1C(=O)c1c(Cl)cc(C(F)(F)F)cc1Cl [C(37), [4-Amino-2-(1H-benzoimidazol-6-ylamino)-thiazol-5-yl]-(2,6-dichloro-4-trifluoromethyl-phenyl)-methanone] | 14000 | > 25 | (70%) | (80%)
1100 | 15 | 1310 | 14 | 22 | 6500 | 17 | CC(=O)Nc1ccc(Cl)c(C(=O)c2sc(Nc3ccc(N4CCN(C)CC4)cc3)nc2N)c1Cl [C(86), N-(3-{4-Amino-2-[4-(4-methyl-piperazin-1-yl)-phenylamino]-thiazole-5-carbonyl}-2,4-dichloro-phenyl)-acetamide] | 12000 | 22 | – | –
200 | 17 | 133 | 16 | > 25 | 12000 | 22 | Nc1nc(Nc2ccc3nc[nH]c3c2)sc1C(=O)c1c(Cl)cncc1Cl [C(63), [4-Amino-2-(1H-benzoimidazol-5-yl-amino)-thiazol-5-yl]-(3,5-dichloro-pyridin-4-yl)-methanone] | 9000 | 20 | – | 84%
10 | 23 | 34 | 14 | 22 | 5600 | 12 | Cc1c(C(=O)c2sc(Nc3ccc(S(N)(=O)=O)cc3)nc2N)sc2ccccc12 [C(49), 4-[4-Amino-5-(3-methyl-benzo[b]thiophene-2-carbonyl)-thiazol-2-ylamino]-benzenesulfonamide] | 4000 | 20 | – | –
191 | 10.3 | 97 | 2.4 | 5 | 640 | 1.4 | CN1CCN(c2ccc(Nc3nc(N)c(C(=O)c4c(F)cccc4F)s3)cc2)CC1=O [C(118), 4-{4-[4-Amino-5-(2,6-difluoro-benzoyl)-thiazol-2-ylamino]-phenyl}-1-methyl-piperazin-2-one] | 940 | 1.5 | – | –
493 | 8.5 | 504 | 18 | > 25 | 4300 | 17 | Nc1nc(Nc2ccc(N3CCOCC3)cc2)sc1C(=O)c1c(Cl)cccc1Cl [C(55), [4-Amino-2-(4-morpholin-4-yl-phenylamino)-thiazol-5-yl]-(2,6-dichloro-phenyl)-methanone] | 17000 | > 25 | 69% | (74%)
